# Structures can show the parent of a compound that is named as a salt.
# System: T1, 1N4R p-tau
# T1 construct: made in house; host or cells: E. coli (PIMAX system)
# Experiment: p-tau aggregation modulator screen of 1280-compound library (ThS fluorescence net change over 16 h)
# Type: biochemical
# Design: key to PTAI>3SD: *: PTAI>3SD
# Settings: not given
row,SMILES,ThS net change
1,CN(C)C(=O)C(CCN1CCC(O)(c2ccc(Cl)cc2)CC1)(c1ccccc1)c1ccccc1 [Loperamide hydrochloride],326
2,CC(C)c1c(CN(C)C(C)Cc2ccccc2)n(C)n(-c2ccccc2)c1=O (stereo not drawn) [Famprofazone],477
3,CCC(C)(C)c1ccc(CC(C)CN2C[C@@H](C)O[C@@H](C)C2)cc1 (stereo partly drawn) [Amorolfine hydrochloride],413
4,C[C@@H]1C[C@@H]([C@H](O)CC2CC(=O)NC(=O)C2)C(=O)[C@@H](C)C1 [Cycloheximide],442

# Same assay, conditions: 30 µM compound, 6 µM p-tau, 16 h
row,SMILES,effect on p-tau aggregation in pilot screen
1,"NCCc1ccc(O)c(O)c1 [Dopamine, reference compound]",none of them affected p-tau aggregation

# Same assay, conditions: 1280-compound library screen; ThS fluorescence net change over 16 h
row,SMILES,ThS net change
1,C[C@]12CC[C@@H]3c4ccc(O)cc4CC[C@H]3[C@@H]1CC[C@@H]2O [Estradiol-17 beta],384
2,Nc1cc(-c2ccncc2)c[nH]c1=O [Amrinone],410
3,Nc1nc(O)c2ncn(COC(CO)CO)c2n1 [Ganciclovir],404
4,O=c1[nH]c2ccccc2n1CCCN1CCC(n2c(=O)[nH]c3cc(Cl)ccc32)CC1 [Domperidone],392
5,[H]/N=C(\N/C(=N/[H])Nc1ccc(Cl)cc1)NC(C)C [Proguanil hydrochloride],389
6,C#CCN(C)CCCOc1ccc(Cl)cc1Cl [Clorgyline hydrochloride],400
7,CCCOc1ccc2nc(NC(=O)OC)[nH]c2c1 [Oxibendazol],391
8,C[N+](C)(C)CCCCCCCCCC[N+](C)(C)C [Decamethonium bromide],390
9,CC1(C)S[C@@H]2[C@H](NC(=O)Cc3ccccc3)C(=O)N2[C@H]1C(=O)O [Benzylpenicillin sodium],398
10,O=C(N/N=C/c1ccc([N+](=O)[O-])o1)c1ccc(O)cc1 [Nifuroxazide],402
11,CO[C@@]1(NC(=O)C2SC(=C(C(N)=O)C(=O)O)S2)C(=O)N2C(C(=O)O)=C(CSc3nnnn3C)CS[C@@H]21 (stereo partly drawn) [Cefotetan],392
12,CNS(=O)(=O)Cc1ccc2[nH]cc(CCN(C)C)c2c1 [Sumatriptan succinate],393
13,c1ccc2c(c1)OCC(C1=NCCN1)O2 (stereo not drawn) [Idazoxan hydrochloride],386
14,Cc1cccc(C)c1NC(=O)C(C)N (stereo not drawn) [Tocainide hydrochloride],412
15,CC[N+](C)(C)c1cccc(O)c1 [Edrophonium chloride],389
16,CCN(CC)CCc1nc(-c2ccccc2)no1.O=C(O)CC(O)(CC(=O)O)C(=O)O [Oxalamine citrate salt],410

# Same assay, conditions: 1280-compound library screen; […]
row,SMILES,ThS net change
1,O=C(O)CCCC[C@@H]1SC[C@@H]2NC(=O)N[C@@H]21 [Biotin],380
2,CCC(COC(=O)c1cc(OC)c(OC)c(OC)c1)(c1ccccc1)N(C)C (stereo not drawn) [Trimebutine],406
3,COc1ccc(OC)c(C(O)CNC(=O)CN)c1 (stereo not drawn) [Midodrine hydrochloride],385
4,CCN(CC)C(C)C(=O)c1ccccc1 (stereo not drawn) [Amfepramone hydrochloride],388
5,CC(Cc1ccc(O)cc1)NCC(O)c1cc(O)cc(O)c1 (stereo not drawn) [Fenoterol hydrobromide],405
6,C[C@]12CC[C@@H]3c4ccc(OC(=O)N(CCCl)CCCl)cc4CC[C@H]3[C@@H]1CC[C@@H]2O [Estramustine],407
7,CN(C)C(=O)Oc1cccc([N+](C)(C)C)c1 [Neostigmine bromide],409
8,C(#CCN1CCCC1)CN1CCCC1.Cl.Cl [Tremorine dihydrochloride],391

# Same assay, conditions: flag: p-tau aggregation inhibitor, ThS net change more than 3 SD from mean
row,SMILES,PTAI>3SD
1,OCCN(CCO)c1nc(N2CCCCC2)c2nc(N(CCO)CCO)nc(N3CCCCC3)c2n1 [Dipyridamole],*
2,CO[C@H]1/C=C/O[C@@]2(C)Oc3c(C)c(O)c4c(O)c(c(/C=N/N5CCN(C6CCCC6)CC5)c(O)c4c3C2=O)NC(=O)/C(C)=C\C=C\[C@H](C)[C@H](O)[C@@H](C)[C@@H](O)[C@@H](C)[C@H](OC(C)=O)[C@@H]1C [Rifapentine],*

# Same assay, conditions: library screen, ThS fluorescence net change over 16 h with p-tau
row,SMILES,ThS net change
1,OCCOCCN1CCN(C(c2ccccc2)c2ccc(Cl)cc2)CC1 (stereo not drawn) [Hydroxyzine dihydrochloride],309
2,CN1CCN(CCCN2c3ccccc3Sc3ccc(C(F)(F)F)cc32)CC1 [Trifluoperazine dihydrochloride],299
3,OCCN(CCO)c1nc(N2CCCCC2)c2nc(N(CCO)CCO)nc(N3CCCCC3)c2n1 [Dipyridamole],-5843
4,CCN(CC)CCNC(=O)c1cc(Cl)c(N)cc1OC.Cl [Metoclopramide monohydrochloride],299
5,CO[C@H]1/C=C/O[C@@]2(C)Oc3c(C)c(O)c4c(O)c(c(/C=N/N5CCN(C6CCCC6)CC5)c(O)c4c3C2=O)NC(=O)/C(C)=C\C=C\[C@H](C)[C@H](O)[C@@H](C)[C@@H](O)[C@@H](C)[C@H](OC(C)=O)[C@@H]1C [Rifapentine],86
6,O=C(CCCN1CCC2(CC1)C(=O)NCN2c1ccccc1)c1ccc(F)cc1 [Spiperone],313
7,CC[C@H]1OC(=O)[C@H](C)[C@@H](O[C@H]2C[C@@](C)(OC)[C@@H](O)[C@H](C)O2)[C@H](C)[C@@H](O[C@@H]2O[C@H](C)C[C@H](N(C)C)[C@H]2O)[C@](C)(O)C[C@@H](C)C(=O)[C@H](C)[C@@H](O)[C@]1(C)O [Erythromycin],314

# Same assay, conditions: p-tau aggregation modulator screen of 1280-compound library; ThS fluorescence net change
row,SMILES,ThS net change
1,O=C(O)Cc1cc(I)c(Oc2ccc(O)c(I)c2)c(I)c1,369
2,CN1C(C(=O)Nc2ccccn2)=C(O)c2ccccc2S1(=O)=O [Piroxicam],329
3,Nc1nc(=O)c2c([nH]1)NCC(CNc1ccc(C(=O)N[C@@H](CCC(=O)[O-])C(=O)[O-])cc1)N2C=O.[Ca+2] (stereo partly drawn) [Folinic acid calcium salt],359
4,CCN(CC)CCOC(=O)c1ccc(N)cc1 [Procaine hydrochloride],362
5,CCn1cc(C(=O)O)c(=O)c2cc(F)c(N3CCN(C)CC3)cc21 [Pefloxacine],352
6,COC1=CC(=O)C[C@@H](C)[C@]12Oc1c(Cl)c(OC)cc(OC)c1C2=O [Griseofulvin],337
7,CN(C)CCC=C1c2ccccc2COc2ccccc21 [Doxepin hydrochloride],341
8,"CN(Cc1cnc2nc(N)nc(N)c2n1)c1ccc(C(=O)NC(CCC(=O)O)C(=O)O)cc1 (racemic) [Amethopterin (R,S)]",373
9,CO[C@@H]1[C@@H](OC(N)=O)[C@@H](O)[C@H](Oc2ccc3c(O)c(NC(=O)c4ccc([O-])c(CC=C(C)C)c4)c(=O)oc3c2C)OC1(C)C.[Na+] [Novobiocin sodium salt],369
10,CC(C)(C)NC(=O)[C@H]1CC[C@H]2[C@@H]3CC[C@H]4NC(=O)C=C[C@]4(C)[C@H]3CC[C@]12C [Finasteride],346
11,Cc1ccc(-c2ncc(Cl)cc2-c2ccc(S(C)(=O)=O)cc2)cn1 [Etoricoxib],376
12,Cl.NC1CCN(c2nc3c(cc2F)c(=O)c(C(=O)O)cn3-c2ccc(F)cc2F)C1 (stereo not drawn) [Tosufloxacin hydrochloride],354
13,O=C(Nc1ccccc1)OCC(CN1CCCCC1)OC(=O)Nc1ccccc1 (stereo not drawn) [Diperodon hydrochloride],347
14,CC(=O)[C@H]1CC[C@H]2[C@@H]3CCC4=CC(=O)CC[C@]4(C)[C@H]3CC[C@]12C [Progesterone],336
15,CN(C)CCN1C(=O)c2ccccc2N(C)c2ccccc21.Cl [Dibenzepine hydrochloride],368
16,CC(C(O)c1ccc(O)cc1)N1CCC(Cc2ccccc2)CC1.O=C(O)C(O)C(O)C(=O)O (stereo not drawn) [Ifenprodil tartrate],361

# Same assay, conditions: p-tau aggregation modulator screen of 1280-compound library; […]
row,SMILES,ThS net change
1,C[N+](C)(C)CCCCCC[N+](C)(C)C.O.O.[Br-].[Br-] [Hexamethonium dibromide dihydrate],342
2,"CC[C@@]1(O)C(=O)OCc2c1cc1n(c2=O)Cc2cc3ccccc3nc2-1 [Camptothecine (S,+)]",350
3,CN(C)CCOC(=O)COc1ccc(Cl)cc1.Cl [Meclofenoxate hydrochloride],359
4,CCC1=C[C@@H]2C[N@]3CCc4c([nH]c5ccccc45)[C@@](C(=O)OC)(C2)[C@@H]13 [Catharanthine],374

# Same assay, conditions: p-tau aggregation modulator screen of the compound library, ThS fluorescence net change
row,SMILES,ThS net change
1,C#CCN[C@@H]1CCc2ccccc21 [Rasagiline],447
2,CN1CCN(c2c(F)cc3c(=O)c(C(=O)O)cn(CCF)c3c2F)CC1 [Fleroxacin],424
3,CC(=O)O[C@H]1C[C@@]2(C)[C@@H](C[C@@H](O)[C@H]3[C@@]4(C)CC[C@@H](O)[C@@H](C)[C@@H]4CC[C@@]32C)/C1=C(\CCC=C(C)C)C(=O)O [Fusidic acid sodium salt],438
4,Cc1nc2ccc(CN(C)c3ccc(C(=O)N[C@@H](CCC(=O)O)C(=O)O)s3)cc2c(=O)[nH]1 [Raltitrexed],443
5,CC1=C(C(=O)O)N2C(=O)[C@@H](NC(=O)[C@H](N)c3ccc(O)cc3)[C@H]2SC1 [Cefadroxil],413
6,CCCCC(C)(O)C/C=C/[C@H]1[C@H](O)CC(=O)[C@@H]1CCCCCCC(=O)OC (mixture of isomers) [Misoprostol],495
7,c1ccc(-c2ccc(C(c3ccccc3)n3ccnc3)cc2)cc1 (stereo not drawn) [Bifonazole],432
8,CCCCc1oc2ccccc2c1C(=O)c1cc(I)c(OCCN(CC)CC)c(I)c1 [Amiodarone hydrochloride],436
9,NS(=O)(=O)c1cc2c(cc1C(F)(F)F)NCNS2(=O)=O [Hydroflumethiazide],425
10,O=C(O)c1ccccc1C(=O)Nc1ccc(S(=O)(=O)Nc2nccs2)cc1 [Phthalylsulfathiazole],425
11,"CCOC(=O)O[C@]1(C(=O)COC(=O)CC)CC[C@H]2[C@@H]3CCC4=CC(=O)C=C[C@]4(C)[C@H]3[C@@H](O)C[C@@]21C [Prednicarbate, prednicarbate]",910
12,Cc1c(C)c2c(c(C)c1O)CCC(C)(COc1ccc(CC3SC(=O)NC3=O)cc1)O2 (stereo not drawn) [Troglitazone],451
13,COc1cc(C(=O)NS(=O)(=O)c2ccccc2C)ccc1Cc1cn(C)c2ccc(NC(=O)OC3CCCC3)cc12 [Zafirlukast],549
14,CCC1NC(=O)c2cc(S(N)(=O)=O)c(Cl)cc2N1 (stereo not drawn) [Quinethazone],427
